Results published in US6127349A, “Phospholipid drug derivatives” (Amur Research Corporation, priority 1998, dated 2000).

Columns and labels:
[1] = tested on: enzyme on lymphocyte cell membrane that cleaves phosphocholine from other compounds; assay: Stimulation of lymphocyte membrane enzyme that cleaves phosphocholine; assay type: biochemical; settings: data not shown
[2] = tested on: cutaneous hypersensitivity immune response; assay: DNCB-induced cutaneous contact hypersensitivity (ear swelling); assay type: in vivo, mice (Balb/c); settings: for cutaneous hypersensitivity immune response: 100 μg/day/mouse s.c., twelve days, ears rechallenged with 1% DNCB; for cutaneous hypersensitivity immune response / suppression of the response by dexamethasone: days 7-12; for suppression of the response by dexamethasone: steroid together with dexamethasone
Experimental: The effects of DHEA-PC on cutaneous contact hypersensitivity was studied. In this study, mice (Balb/c) were immunologically challenged with DNCB (2 % in ethanol) applied to a 2 cm area on the back. The steroid was injected subcutaneously (100 μg/day/mouse) throughout the twelve-day study period. Ears were rechallenged with DNCB (1% in ethanol) on days 7-12 and swelling was measured daily in order to evaluate the effect on the immune system.

[3] = oral; cited from earlier work
neutral sphingomylenase = assay: Hydrolysis of DHEA-PC by neutral sphingomyelinase; assay type: biochemical
Experimental: (§1) DHEA-phosphocholine (DHEA-PC) was synthesized by sequential reaction of DHEA, choline, and water with phosphorous oxychloride. The synthetic product had the same HPLC retention time and the same mass-spectrum as did the endogenous, actual compound. […] When human serum extracts were analyzed, mass fragments were detected at the same retention time as synthetic material.

[4] = Partition of tritiated DHEA-phosphocholine reaction product between aqueous phase and benzene (scintillation counting); assay type: physicochemical
Experimental: A dehydroepiandrosterone(DHEA)-phosphocholine derivative was synthesized as follows: 1 mg of phosphocholine (calcium salt; Sigma Chemical, St. Louis, Mo.) was dissolved in 0.5 ml of formamide (Cat # S-7503; Lot # 55HO257; Sigma Chemical) and 0.5 ml of pyridine (Cat # P-4036; Lot # 55H1489; Sigma Chemical). 0.025 mCi of (1,2,6,7 ^3 H(n)-Dehydroepiandrosterone (Cat # NET814; Lot # 3146097; 89.2 Ci/mmol; Dupont, NEN Products, Boston, Mass.) in 0.025 ml of ethanol was added. The reaction was catalyzed by the addition (as the dry solid) of 5 mg of dicyclohexylcarbodiimide (Cat # D-3129; Lot # 34hO647; Sigma Chemical). The reaction mixture was incubated overnight at room temperature. In the morning, 9 ml of water was added and the mixture extracted 3 times with 10 ml portions of benzene. The benzene extracts were combined and aliquots of both phases were counted in a scintillation counter. The results are set forth below:
The aqueous layer was re-extracted with benzene. The second benzene extraction yielded 272 cpm (0.01 M1) as a confirmation.

acidic sphingomylenase = assay: Hydrolysis of DHEA-PC by acidic sphingomyelinase; assay type: biochemical
Experimental: as §1

[5] = literature; cited from earlier work
[6] = cited from earlier work
[7] = oral administration, cited from earlier work

## TGF-α: stimulates lymphocyte membrane enzyme that cleaves phosphocholine
[1]
  stimulation of enzyme activity: ten-fold

## C[C@@H]1C[C@H]2[C@@H]3CCC4=CC(=O)C=C[C@]4(C)[C@@]3(F)[C@@H](O)C[C@]2(C)[C@@]1(O)C(=O)CO [dexamethasone]
[2]; versus control
  immune response with dexamethasone administered by itself: suppressed the immune response below the control

## C[C@]12CC[C@@H]3c4ccc(O)cc4CC[C@H]3[C@@H]1CC[C@@H]2O [estradiol]
[3]
  activity when administered orally: only limited activity

## C[C@]12CC[C@H](OP(=O)([O-])OCC[N+](C)(C)C)CC1=CC[C@@H]1[C@@H]2CC[C@]2(C)C(=O)CC[C@@H]12 [DHEA-PC, DHEA-3-PHOSPHOCHOLINE]
[2]
  cutaneous hypersensitivity immune response: enhanced the cutaneous hypersensitivity immune response similar to native steroids
  suppression of the response by dexamethasone: not suppressed by dexamethasone
[2]; administered to mice
  dinitrochlorobenzene-induced sensitization: potentiated dinitrochlorobenzene-induced sensitization
Neutral sphingomylenase
  hydrolysis by neutral sphingomylenase: hydrolyzed by neutral sphingomylenase
[4]; 0.01 M1 aliquot, re-extraction of the aqueous layer with benzene
  second benzene extraction radioactivity: 272 cpm
[4]; 0.01 ml aliquot, after 3 benzene extractions
  Aqueous Phase radioactivity: 10,729 cpm
[4]; 0.01 ml aliquot, combined benzene extracts
  Benzene Phase radioactivity: 1,121 cpm
[4]; water/benzene
  phase in which the reaction product is found: remains in the aqueous phase
Acidic sphingomylenase
  hydrolysis by acidic sphingomylenase: not by acidic sphingomylenase

## C[C@]12CC[C@H]3[C@@H](CCC4=CC(=O)CC[C@@]43C)[C@@H]1CC[C@@H]2O [testosterone]
[3]
  activity when administered orally: only limited activity

## C[C@]12CC[C@H](O)CC1=CC[C@@H]1[C@@H]2CC[C@]2(C)C(=O)CC[C@@H]12 [DHEA, dehydroepiandrosterone]
[2]
  cutaneous hypersensitivity immune response: similar, high level response
  suppression of the response by dexamethasone: not suppressed by dexamethasone
[4]; water/benzene, expected with this protocol
  extraction of free starting material into benzene: extracted quantitatively into benzene
[3]
  activity when administered orally: only limited activity

## O=C1N(Cc2ccc(CO)cc2)[C@H](Cc2ccccc2)[C@H](O)[C@@H](O)[C@@H](Cc2ccccc2)N1Cc1ccc(CO)cc1 [DMP-323]
[5]
  aqueous solubility: low aqueous solubility
[6]
  bioavailability upon administration to patients: variability in the compounds bioavailability
[6]; patients
  efficacy: inconsistent efficacy

## C[C@]12CC[C@H](OS(=O)(=O)O)CC1=CC[C@@H]1[C@@H]2CC[C@]2(C)C(=O)CC[C@@H]12 [DHEA-sulfate]
[2]
  cutaneous hypersensitivity immune response: similar, high level response
  suppression of the response by dexamethasone: not suppressed by dexamethasone

## C[C@]12CC[C@@H](O)C[C@H]1CC[C@@H]1[C@@H]2CC[C@]2(C)C(=O)CC[C@@H]12 [etiocholanolone]
[7]; free compound
  inactivated on each pass through the liver: about 99%
[7]
  biologically available fraction of the administered drug: only a fraction of a percent
[3]
  activity when administered orally: only limited activity
